# Assay results: patent EP1165534B1, “BENZOYLGUANIDINE DERIVATIVES WITH ADVANTAGEOUS PROPERTIES, METHOD FOR PRODUCING THEM AND THEIR USE IN THE PRODUCTION OF MEDICAMENTS” (Boehringer Ingelheim Pharma GmbH & Co.KG, priority 1998, dated 2000)
# Structures can show the parent of a compound that is named as a salt. Where two headings read alike, the source gives them in different places.
# Experiments:
# Na^+/H^+-Austauscher = target: T1, Na^+/H^+-Austauscher (Homo sapiens, UniProt P19634); assay: Inhibition of the Na+/H+ exchanger in human colon cancer cells (HT-29), BCECF fluorescence pH measurement; assay type: cell-based; settings: HT-29-Zellen; 4 min, 37°C, pH 7.0
# T1 construct: HT-29-Zellen werden bei 37°C, 5% CO2 in Wachstumsmedium inkubiert; endogenous in cells; host or cells: HT-29 human colon cancer cells
# T1 sequence (P19634 whole entry): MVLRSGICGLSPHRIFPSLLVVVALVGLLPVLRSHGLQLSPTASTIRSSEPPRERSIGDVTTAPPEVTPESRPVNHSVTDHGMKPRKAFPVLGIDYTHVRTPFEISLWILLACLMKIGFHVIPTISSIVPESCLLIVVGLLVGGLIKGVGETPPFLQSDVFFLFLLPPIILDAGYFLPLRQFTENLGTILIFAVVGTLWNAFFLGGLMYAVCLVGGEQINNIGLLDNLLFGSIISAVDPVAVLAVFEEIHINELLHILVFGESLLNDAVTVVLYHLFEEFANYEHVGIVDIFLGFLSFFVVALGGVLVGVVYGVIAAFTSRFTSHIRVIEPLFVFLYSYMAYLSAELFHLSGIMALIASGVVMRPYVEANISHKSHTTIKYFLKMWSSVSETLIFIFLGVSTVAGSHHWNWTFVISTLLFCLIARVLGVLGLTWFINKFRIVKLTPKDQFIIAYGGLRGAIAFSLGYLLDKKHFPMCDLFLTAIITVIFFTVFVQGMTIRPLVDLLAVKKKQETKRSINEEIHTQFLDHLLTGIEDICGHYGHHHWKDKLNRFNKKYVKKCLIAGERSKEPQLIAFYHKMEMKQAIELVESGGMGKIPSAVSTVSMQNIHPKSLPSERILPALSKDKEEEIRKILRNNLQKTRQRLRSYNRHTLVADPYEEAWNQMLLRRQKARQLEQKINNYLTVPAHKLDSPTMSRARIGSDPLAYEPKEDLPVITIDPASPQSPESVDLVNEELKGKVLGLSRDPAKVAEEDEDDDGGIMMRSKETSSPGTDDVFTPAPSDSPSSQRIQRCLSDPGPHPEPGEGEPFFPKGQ
# Description: Inhibition des Na^+/H^+-Austauschers in humanen Darmkrebszellen (HT-29):
# HT-29-Zellen werden bei 37°C, 5% CO2 in Wachstumsmedium inkubiert. Nach 3-5 Tagen wurde das Wachstumsmedium entfernt, die Zellen gewaschen und mit 7.5 µM BCECF-AM (pH-sensitiver Fluoreszenzfarbstoff) bei 37°C ohne CO2 beladen. Nach 30 min werden die Zellen gewaschen und mit folgendem Medium angesäuert: 70 mM Cholinchlorid, 20 mM NH4Cl, 1 mM MgCl2, 1.8 mM CaCl2, 5 mM Glucose und 15 mM HEPES, pH 7.5.
# Nach 6 min Inkubation bei 37°C ohne CO2 werden die Zellen gewaschen und für 5 min mit Waschmedium inkubiert: 120 mM Cholinchlorid, 5 mM KCl, 1 mM MgCl2, 1.8 mM CaCl2, 5 mM Glucose und 15 mM MOPS, pH 7.0.
# Das Waschmedium wird entfernt und Kontrollmedium mit oder ohne Testverbindung wird zugegeben: 120 mM NaCl, 5 mM KCl, 1 mM MgCl2, 1.8 mM CaCl2, 5 mM Glucose, 15 mM MOPS, pH 7.0.
# Die Zellen werden 4 min bei 37°C ohne CO2 inkubiert und fluorimetrisch (CytoFluor 2350) vermessen. Die Fluoreszenz des Farbstoffes BCECF wird bei den Anregungswellenlängen 485 nm (pH-sensitiv) und 440 nm (nicht pH-sensitiv) und bei der Emissionswellenlänge 530 nm gemessen. Der cytoplasmatische pH wird aus dem Verhältnis der Fluoreszenzen bei 485 und 440 nm berechnet. Das Fluoreszenzverhältnis wird durch Messung des Fluoreszenzsignals nach Äquilibrierung von externem und internem pH mit Nigericin kalibriert.
# [1] = Pharmacokinetics in male rats after i.v. and oral administration; assay type: in vivo, Ratten; settings: not fasted; for F: non-compartmental analysis (TopFit); for half-life: rat, plasma
# Description: Pharmakokinetische Daten:
# Für die Untersuchungen wurden männliche, ca. 200 g schwere Ratten (nicht nüchtern), verwendet. Zur intravenösen und oralen Applikation werden die Substanzen in einer angesäuerten wässerigen Lösung (pH 3) gelöst. Einzelne Bolus Injektionen (0.5 mg/kg i.v., 2.5 mg/kg p.o.) werden in die Schwanzvene injiziert (0.2 ml/200g) oder über eine Kanüle in den Magen gegeben (1 ml/200 g). Die Applikationslösungen werden analysiert, um die applizierte Dosis zu bestätigen. 0.5 ml Aliquots Blut werden vom retro-orbitalen Venenplexus unter kurzer Halothan-Betäubung mit heparinisierten Glass-Kapillaren nach folgendem Schema entnommen: • nach i.v. Applikation: 5 min, 15 min, 30 min, 1 h, 2 h, 4 h, 6 h, 8h; • nach oraler Applikation: 15 min, 1 h, 2 h, 4 h, 6 h, 8 h, 24 h, 32 h.
# Die Proben werden zentrifugiert und das Plasma bis zur Analyse bei - 20°C gelagert. Die Proben-Vorbereitung erfolgt durch flüssig-flüssig Extraktion mit einem internen Standard. Die Plasmaextrakte werden mit Reversed Phase HPLC, gekoppelt mit einem Elektrospray-Tandem-Massenspektrometer analysiert. Die pharmakokinetischen Daten werden aus den entsprechenden PlasmaKonzentrationen durch Kompartiment-freie Analyse mit dem TopFit Programm bestimmt (Heinzel, G., Woloszczak, R., Thomann, P. TopFit 2.0 - Pharmacokinetic and pharmacodynamic data analysis, system for the PC, Gustav Fischer Verlag, Stuttgart, Jena, New York, 1993).
# [2] = iv, 0.5 mg/kg i.v., read-out: t1/2 (i.v.) (converted)
# [3] = po, 2.5 mg/kg p.o., read-out: t1/2 (p.o.) (converted)
Structure (SMILES),IC50 (Na^+/H^+-Austauscher) [nM],"F ([1]; 0.5 mg/kg i.v., 2.5 mg/kg p.o.)","half-life [1, 2] [h]","half-life [1, 3] [h]"
"COc1cccc(C(=O)N2CCN(c3ccc(C(=O)NC(=N)N)cc3C(F)(F)F)CC2)c1 [Beispiel 1, 4-(4-(3-Methoxyphenylcarbonyl)-1-piperazinyl)-3-trifluormethylbenzoylguanidin-hydrochlorid]",76,–,–,–
"N=C(N)NC(=O)c1ccc(N2CCN(C(=O)c3ccc[nH]3)CC2)c(C(F)(F)F)c1 [Beispiel 2, 4-(4-(2-Pyrrolylcarbonyl)-1-piperazinyl)-3-trifluormethylbenzoylguanidin-methansulfonat]",–,63,1.3,5
"N=C(N)NC(=O)c1ccc(N2CCN(C(=O)c3ccc(F)cc3)CC2)c(C(F)(F)F)c1 [Beispiel 3, 4-(4-(4-Fluorphenylcarbonyl)-1-piperazinyl)-3-trifluormethylbenzoylguanidin-methansulfonat]",38,71,3.1,5.4
"COc1ccccc1C(=O)N1CCN(c2ccc(C(=O)NC(=N)N)cc2C(F)(F)F)CC1 [Beispiel 4, 4-(4-(2-Methoxyphenylcarbonyl)-1-piperazinyl)-3-trifluormethylbenzoylguanidin-hydrochlorid]",84,–,–,–
"N=C(N)NC(=O)c1ccc(N2CCN(C(=O)c3cccc(C(F)(F)F)c3)CC2)c(C(F)(F)F)c1 [Beispiel 5, 4-(4-(3-Trifluormethylphenylcarbonyl)-1-piperazinyl)-3-trifluormethylbenzoylguanidin-hydrochlorid]",23,58,5.4,7.5
"N=C(N)NC(=O)c1ccc(N2CCN(C(=O)c3ccco3)CC2)c(C(F)(F)F)c1 [Beispiel 7, 4-(4-(2-Furylcarbonyl)-1-piperazinyl)-3-trifluormethyl-benzoylguanidinmethansulfonat]",84,–,–,–
"Cc1cccc(C(=O)N2CCN(c3ccc(C(=O)NC(=N)N)cc3C(F)(F)F)CC2)c1 [Beispiel 8, 4-(4-(3-Methylphenylcarbonyl)-1-piperazinyl)-3-trifluormethylbenzoylguanidin-methansulfonat]",61,–,–,–
"N=C(N)NC(=O)c1ccc(N2CCN(C(=O)c3ccccn3)CC2)c(C(F)(F)F)c1 [Beispiel 10, 4-(4-(2-Pyridylcarbonyl)-1-piperazinyl)-3-trifluormethyl-benzoylguanidindimethansulfonat]",79,–,–,–
